Data taken from patent US8569372B2, “Method for preventing or treating a disease, disorder or condition induced by retina ischemia” (priority 2011, dated 2013).

Experiments:
RGC-5 cells = assay: RGC-5 cell viability under H2O2 induced oxidative stress; format: cell-based; conditions: RGC5, then 500 μM H2O2 24 hours, H2O2 alone 42.05±6.10%, n=6, read-out: RGC-5 cell viability (control: 100%)
Experimental: The RGC-5 cell line was obtained from the American Type Culture Collection (ATCC, No. CRL-2302, Manassas, Va., USA). The RGC-5 cell line represents a lineage of neuronal precursor cells. The RGC-5 cells were maintained in Dulbecco's modified Eagle's medium (DMEM; Falcon, Becton Dickinson, N.J., U.S.A.) containing 10% fetal calf serum, 100 U/mL penicillin and 100 μg/mL streptomycin (Sigma-Aldrich) in a humidified atmosphere of 95% air and 5% CO2 at 37° C. Cell viability was evaluated by counting the cell number using a haemocytometer under an optical microscope.
In the enzyme-linked immunosorbent assay (ELISA), the cells (2.5×10^4 in each well) were plated into 96-well plates. Each well contains 200 μl of DMEM (control) without or with H2O2. Next, the cells were incubated at 37° C. for 1 day and then shifted to serum free medium for the following day. In order to stimulate oxidative stress, 500 μM H2O2 (Sigma-Aldrich 18304/k0250, St Louis, Mo., USA) was then added for 24 hours as described elsewhere. Depending on the experimental protocol, SAC or vehicle was added to some samples 15 minutes before adding H2O2.

VEGF mRNA = assay: Real-time PCR of retinal mRNA after ischaemia/reperfusion: VEGF; format: in vivo, Wistar rats; conditions: 100 μM SAC pre-treatment, 24 hours after I/R; control 0.36±0.07, vehicle 1.10±0.20; n=6
Experimental: (§1) The rats (200-250 g) were anaesthetized and placed in a stereotaxic frame. The anterior chamber of one eye was cannulated with a 30-gauge needle connected to a 0.9% saline reservoir; this caused a high IOP (HIOP) of 120 mmHg for 60 minutes. Eye fundus whitening and a low ERG response confirmed induction of an ischaemic insult. A sham procedure was carried out on the controls. Drug administration involved the pre-administration (15-minute before 60-minute HIOP induced retinal ischaemia) of SAC (25, 50, 100 μM) or vehicle (saline; control). The ischemic eye of each test rat was treated with or without a single intravitreous injection of 5 μl of the test compound. […] The levels of Thy-1, HIF-1 Alpha, VEGF and MMP-9 mRNAs present in the retinas were determined using a real-time PCR technique. […] Relative quantification (a comparative method) was performed using the house keeping gene Beta-actin as the internal standard. This process allows the normalized quantification of the mRNA target (Ct) and takes into account the differences in the amount of total RNA added to each reaction (ΔCt). The relative HIF-1 Alpha/VEGF/MMP-9 expression changes were calculated as fold changes relative to the control with respect to the calibrator (ΔΔCt), which was represented by the control retina. […] The data obtained for each treatment were pooled, and a total percentage change relative to the control was calculated. […]

[1] = system: non-ischaemic (normal) eye; assay: Flash ERG b-wave of the non-ischaemic (normal) eye given SAC (adverse effects); format: in vivo, Wistar rats; conditions: 100 μM SAC, n=3
Experimental: Drug administration involved the pre-administration (15-minute before 60-minute HIOP induced retinal ischaemia) of SAC (25, 50, 100 μM) or vehicle (saline; control). The ischemic eye of each test rat was treated with or without a single intravitreous injection of 5 μl of the test compound. In addition, SAC (100 μM) was administered to the non-ischaemic eye (normal) to see whether SAC has any adverse effects. In both cases, the paired normal eye was untreated.
Flash ERG recordings were performed on all rats before retinal ischaemia (day 0), as well as at 1, 3, 5, and 7 days after ischaemia and treatment with or without the defined chemicals. The animals were dark adapted and anaesthetized to do this. A strobe was placed 2 cm in front of the animal to provide a stimulus of 0.5 Hz. Fifteen consecutive responses were recorded at two-second intervals and at 10 kHz; the responses were amplified and averaged using an amplifier P511/regulated power supply RPS 107/stimulator PS22 (Grass-Telefactor; Astro-Med Inc., West Warwick, R.I., USA). For comparative purposes, the b-wave ratio, namely the b-wave amplitude of the ischaemic/sham-operation eye or the untreated/SAC-treated non-ischaemic (normal) eye as compared with that of the contralateral normal eye, was calculated.

MMP-9 mRNA = assay: Real-time PCR of retinal mRNA after ischaemia/reperfusion: MMP-9; format: in vivo, Wistar rats; conditions: 100 μM SAC pre-treatment, 24 hours after I/R; control 0.46±0.15, vehicle 1.97±0.38; n=6
Experimental: as §1

## C=CCSC[C@H](N)C(=O)O [SAC, S-allyl L-cysteine]
RGC-5 cells; 25 μM SAC 15-minute pre-incubation
  viability at 25 µM: 47.7 ± 4.53%
RGC-5 cells; 50 μM SAC 15-minute pre-incubation
  viability at 50 µM: 57.5 ± 3.48%
RGC-5 cells; 100 μM SAC 15-minute pre-incubation
  viability at 100 µM: 70.2 ± 3.32%
VEGF mRNA
  VEGF mRNA ratio in the retina: 0.50±0.06
[1]; day 0
  b-wave amplitude (ratio) of the non-ischemic (normal) eye vs. the fellow normal eye: 1.11±0.05
[1]; day 1
  b-wave amplitude (ratio) of the non-ischemic (normal) eye vs. the fellow normal eye: 1.05±0.06
[1]; day 5
  b-wave amplitude (ratio) of the non-ischemic (normal) eye vs. the fellow normal eye: 1.06±0.12
[1]; day 7
  b-wave amplitude (ratio) of the non-ischemic (normal) eye vs. the fellow normal eye: 0.91±0.09
[1]; days 0 to 7
  adverse effect on the b-wave amplitude (ratio) of the non-ischemic (normal) eye: no significant adverse effect
MMP-9 mRNA
  MMP-9 mRNA ratio in the retina: 0.41±0.15
